{"source": "patent US4542025A", "about": "“Injectable, long-acting microparticle formulation for the delivery of anti-inflammatory agents” (priority 1984, dated 1985)", "experiment": "In vitro release of methylprednisolone acetate into 50 wt % aqueous ethanol", "assay_type": "physicochemical", "settings": "unencapsulated, 37° C., 120 cycles/min", "protocol": "The in vitro release of methylprednisolone acetate from microparticles into a receiving fluid comprising 50 wt % of aqueous ethanol maintained at 37° C. was measured.\nTriplicate samples of 20 mg of microparticles were weighed and each sample was placed in an 8-oz bottle containing 150 mL of 50 wt % aqueous ethanol. […] Next, the bottles were sealed with a thin sheet of Teflon and a screw cap to prevent evaporation. The bottles were then placed in an Eberbach shaker bath oscillating at 120 cycles/min and maintained at 37° C. The amount of drug released from the microparticles as a function of time was measured by determining the absorbance of the aqueous ethanol receiving fluid at 247 nm and by using the following equation based on Beer's Law.\nwherein C is the concentration of methylprednisolone acetate in g/ml.", "data": [{"smiles": "CC(=O)OCC(=O)[C@@]1(O)CC[C@H]2[C@@H]3C[C@H](C)C4=CC(=O)C=C[C@]4(C)[C@H]3[C@@H](O)C[C@@]21C", "values": [{"measurement": "time to complete dissolution", "result": 30, "unit": "min"}]}]}
